The record followed here is patent publication US9212168B2 (priority 2011, dated 2015).

The test system of experiment [1] is HCV genotype 1a Y93H resistant mutant replicon. In words: Replicon assay against resistant mutant 1a Y93H (transient transfection). It is filed as cell-based. As to conditions: Hepatitis C virus, read-out: Genotype 1a Y93H. The method, then: Assay 3: Replicon Assays Against Resistant Mutants […]
Potencies of test compounds against additional mutations of interest were determined using transient transfection assays. These mutants included genotype 1a Y93C, Y93H, M28T, Q30E, Q30K, L31M, and Y93N. The mutation was first introduced into the parental plasmid by site-directed mutagenesis. The replicon plasmid was then linearized and in vitro transcribed to RNA. The RNA was used to transiently transfect Huh-LUNET cells (obtained from ReBLikon GmbH, Schriesheim, Germany) by electroporation, and the potencies of test compounds against the mutants were determined as previously described.

Another experiment has as its system HCV genotype 1b replicon. In words: HCV genotype 1b replicon assay (Renilla luciferase readout). As to conditions: Hepatitis C virus, read-out: Genotype 1b. In kind it is cell-based, hepatitis C virus. The essentials:
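Reported as pEC50 derived from a 4-parameter fit of Renilla luciferase activity against concentration. Replicon cells (APC144, Huh7 background) were exposed to compound for 48 h in G418-free medium with final 0.5% DMSO, after seeding at 10,000 cells/well and 4 h adherence.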

For experiment [2], the system named is HCV genotype 3a NS5A chimeric replicon. In words: Replicon assay against NS5A sequence of genotype 3a, intergenotypic chimera. It is filed as cell-based. Conditions: Hepatitis C virus, read-out: Genotype 3a. How it is done:
(§1) Assay 4: Replicon Assays Against NS5A Sequences of Other Genotypes
(§2) Potencies of test compounds against NS5A sequences of other genotypes were determined by creating intergenotypic chimeras. The entire NS5A gene from genotypes 2a, 2b, 3a, 4a, 5a, and 6a, or the nucleotide sequence encoding amino acids 11-118 of NS5A, was subcloned into a genotype 1b replicon. For genotype 2a, intergenotypic chimeras with both the JFH and the J6 strain were created. […] Since the majority of genotype 2a sequences in public databases contain the L31M sequence variant, the use of the J6 genotype 2a sequence may better reflect the antiviral potency of NS5A inhibitors.
(§3) These chimeric replicon plasmids were then linearized and in vitro transcribed to RNA. The RNA was used to transiently or stably transfect Huh-LUNET cells by electroporation, and the potencies of test compounds against the chimeras were determined as previously described.
For orientation: A replicon is a self-replicating genome or part of one, used to study replication in cells.

Another experiment concerns HCV genotype 1a replicon. In words: HCV genotype 1a replicon assay (NS3 protease activity readout). In kind it is cell-based, hepatitis C virus. As to conditions: Hepatitis C virus, read-out: Genotype 1a, HCV genotype 1a replicon. The essentials: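 EC50 values came from a 4-parameter robust fit of fluorescence (ex 340, em 509 nm) produced by NS3-specific protease in lysates, assayed with 15 μM FRET substrate for 20 min at 37° C, after 48 or 72 hours of compound exposure (0.5% DMSO) of Huh7.5-derived APC89 genotype 1a replicon cells.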

The test system of experiment [3] is HCV genotype 2a (J6 strain) NS5A chimeric replicon. In words: Replicon assay against NS5A sequence of genotype 2a (J6 strain), intergenotypic chimera. It is filed as cell-based. As to conditions: Hepatitis C virus, read-out: Genotype 2a (J6). How it is done:
as §1, §2, §3

Take `COC(=O)N[C@H](C(=O)N1C[C@@H](C)C[C@H]1c1nc(-c2ccc(-c3cc(Cl)c(NC(=O)c4ccc(N5CCN(C(=O)C(C)(C)C)C[C@H]5C)nc4)cc3OC(F)(F)F)cc2)c[nH]1)C1CCOCC1` [Example 14]: the EC50 in experiment [1] was 1 to 10 nM; with HCV genotype 1b replicon, less than 0.1 nM; in experiment [2] it was 0.1 to 1 nM; in the experiment on HCV genotype 1a replicon, less than 0.1 nM; in experiment [3] it was 0.1 to 1 nM.

With `COC(=O)N[C@H](C(=O)N1C[C@@H](C)C[C@H]1c1nc(-c2ccc(-c3ccc(C(=O)Nc4ccc(N5CCN(C(=O)C(C)(C)C)C[C@H]5C)nc4)c(F)c3OC(F)(F)F)cc2)c[nH]1)C1CCOCC1` [Example 21, Methyl ((S)-2-((2S,4S)-2-(4-(3′-fluoro-4′-((6-((R)-2-methyl-4-pivaloyl-piperazin-1-yl)pyridin-3-yl)carbamoyl)-2′-(trifluoromethoxy)-[1,1′-biphenyl]-4-yl)-1H-imidazol-2-yl)-4-methylpyrrolidin-1-yl)-2-oxo-1-(tetrahydro-2H-pyran-4-yl)ethyl)carbamate], the EC50 in experiment [1] was 0.1 to 1 nM; in the experiment on HCV genotype 1b replicon, less than 0.1 nM; in experiment [2] it was 0.1 to 1 nM; in the experiment on HCV genotype 1a replicon, less than 0.1 nM; in experiment [3], 0.1 to 1 nM.

In the case of `COC(=O)N[C@H](C(=O)N1C[C@@H](C(N)=O)C[C@H]1c1nc(-c2ccc(-c3cc(Cl)c(NC(=O)c4ccc(N5CCN(C(=O)C(C)(C)C)C[C@H]5C)nc4)cc3OC(F)(F)F)cc2)c[nH]1)C(C)C` [Example 18, [(S)-1-((2S,4S)-4-Carbamoyl-2-{4-[5′-chloro-4′-({6-[(R)-4-(2,2-dimethyl-propionyl)-2-methyl-piperazin-1-yl]-pyridine-3-carbonyl}-amino)-2′-trifluoromethoxy-biphenyl-4-yl]-1H-imidazol-2-yl}-pyrrolidine-1-carbonyl)-2-methyl-propyl]-carbamic acid methyl ester], the EC50 in experiment [1] is 1 to 10 nM; in the experiment on HCV genotype 1b replicon it was less than 0.1 nM; in experiment [2] it was 1 to 10 nM; in the experiment with HCV genotype 1a replicon it was less than 0.1 nM; in experiment [3], 0.1 to 1 nM.

With `COC(=O)N[C@H](C(=O)N1C[C@@H](OC)C[C@H]1c1nc(-c2ccc(-c3cc(Cl)c(NC(=O)c4ccc(N5CCN(C(=O)C(C)(C)C)C[C@H]5C)nc4)cc3OC(F)(F)F)cc2)c[nH]1)C(C)C` [Example 13], the EC50 was 1 to 10 nM in experiment [1]; less than 0.1 nM in the experiment with HCV genotype 1b replicon; 0.1 to 1 nM in experiment [2]; less than 0.1 nM with HCV genotype 1a replicon; 0.1 to 1 nM in experiment [3].

Take `COC(=O)N[C@H](C(=O)N1C[C@@H](C)C[C@H]1c1nc(-c2ccc(-c3c(Cl)cc(C(=O)Nc4ccc(N5CCN(C(=O)C(C)(C)C)C[C@H]5C)nc4)cc3OC(F)(F)F)cc2)c[nH]1)C1CCOCC1` [Example 20, Methyl ((S)-2-((2S,4S)-2-(4-(2′-chloro-4′-((6-((R)-2-methyl-4-pivaloylpiperazin-1-yl)pyridin-3-yl)carbamoyl)-6′-(trifluoromethoxy)-[1,1′-biphenyl]-4-yl)-1H-imidazol-2-yl)-4-methylpyrrolidin-1-yl)-2-oxo-1-(tetrahydro-2H-pyran-4-yl)ethyl)carbamate]: the EC50 in experiment [1] was 1 to 10 nM; in the experiment on HCV genotype 1b replicon it was less than 0.1 nM; in experiment [2], 1 to 10 nM; with HCV genotype 1a replicon it was less than 0.1 nM; in experiment [3], 1 to 10 nM.

As to `COC(=O)N[C@H](C(=O)N1C[C@@H](OC)C[C@H]1c1nc(-c2ccc(-c3cc(Cl)c(NC(=O)c4ccc(N5CCN(C(=O)C(C)(C)CO)C[C@H]5C)nc4)cc3OC(F)(F)F)cc2)c[nH]1)C1CCOCC1` [Example 16, [(S)-2-((2S,4S)-2-{4-[5′-Chloro-4′-({6-[(R)-4-(3-hydroxy-2,2-dimethyl-propionyl)-2-methyl-piperazin-1-yl]-pyridine-3-carbonyl}-amino)-2′-trifluoromethoxy-biphenyl-4-yl]-1H-imidazol-2-yl}-4-methoxy-pyrrolidin-1-yl)-2-oxo-1-(tetrahydro-pyran-4-yl)-ethyl]-carbamic acid methyl ester], the EC50 in experiment [1] is 1 to 10 nM; in the experiment on HCV genotype 1b replicon, less than 0.1 nM; in experiment [2], 1 to 10 nM; in the experiment with HCV genotype 1a replicon, less than 0.1 nM; in experiment [3], 1 to 10 nM.

Take `COC(=O)N[C@H](C(=O)N1C[C@@H](OC)C[C@H]1c1nc(-c2ccc(-c3cc(Cl)c(NC(=O)c4ccc(N5CCN(C(=O)C(C)(C)C)C[C@H]5C)nc4)cc3OC(F)(F)F)cc2)c[nH]1)C1CCOCC1` [Example 15]: the EC50 in experiment [1] was 1 to 10 nM; in the experiment on HCV genotype 1b replicon, less than 0.1 nM; in experiment [2], 0.1 to 1 nM; with HCV genotype 1a replicon, less than 0.1 nM; in experiment [3], 0.1 to 1 nM.

Turning to `COC(=O)N[C@H](C(=O)N1C[C@@H](C)C[C@H]1c1nc(-c2ccc(-c3ccc(C(=O)Nc4ccc(N5CCN(C(=O)[C@H]6CC6(C)C)C[C@H]5C)nc4)cc3OC(F)(F)F)cc2)c[nH]1)C(C)C` [Example 8, ((S)-1-{(2S,4S)-2-[4-(4′-{6-[(R)-4-((S)-2,2-Dimethyl-cyclopropanecarbonyl)-2-methyl-piperazin-1-yl]-pyridin-3-ylcarbamoyl}-2′-trifluoromethoxy-biphenyl-4-yl)-1H-imidazol-2-yl]-4-methyl-pyrrolidine-1-carbonyl}-2-methyl-propyl)-carbamic acid methyl ester], the EC50 is 10 to 1000 nM in experiment [1]; less than 0.1 nM in the experiment with HCV genotype 1b replicon; 10 to 1000 nM in experiment [2]; less than 0.1 nM in the experiment on HCV genotype 1a replicon; 10 to 1000 nM in experiment [3].

Take `CNC(=O)N1C[C@@H](C)N(c2ccc(C(=O)Nc3cc(OC(F)(F)F)c(-c4ccc(-c5c[nH]c([C@@H]6C[C@H](C)CN6C(=O)[C@@H](NC(=O)OC)C(C)C)n5)cc4)cc3Cl)cn2)C[C@@H]1C` [Example 1, ((S)-1-{(2S,4S)-2-[4-(5′-Chloro-4′-{[6-((2R,5S)-2,5-dimethyl-4-methylcarbamoyl-piperazin-1-yl)-pyridine-3-carbonyl]-amino}-2′-trifluoromethoxy-biphenyl-4-yl)-1H-imidazol-2-yl]-4-methyl-pyrrolidine-1-carbonyl}-2-methyl-propyl)-carbamic acid methyl ester]: the EC50 in experiment [1] was 10 to 1000 nM; in the experiment with HCV genotype 1b replicon it was less than 0.1 nM; in experiment [2] it was 10 to 1000 nM; in the experiment with HCV genotype 1a replicon it was less than 0.1 nM; in experiment [3], 10 to 1000 nM.

Turning to `COC(=O)N[C@H](C(=O)N1CC2(C[C@H]1c1nc(-c3ccc(-c4ccc(NC(=O)c5ccc(N6CCN(C(=O)[C@H]7CC7(C)C)C[C@H]6C)nc5)cc4OC(F)(F)F)cc3)c[nH]1)OCCO2)C(C)C` [Example 4, Methyl (S)-1-((S)-8-(4-(4′-(6-((R)-4-((S)-2,2-dimethylcyclopropanecarbonyl)-2-methylpiperazin-1-yl)nicotinamido)-2′-(trifluoromethoxy)biphenyl-4-yl)-1H-imidazol-2-yl)-1,4-dioxa-7-azaspiro[4.4]nonan-7-yl)-3-methyl-1-oxobutan-2-ylcarbamate], the EC50 is 0.1 to 1 nM in experiment [1]; less than 0.1 nM in the experiment with HCV genotype 1b replicon; 1 to 10 nM in experiment [2]; less than 0.1 nM in the experiment with HCV genotype 1a replicon; 1 to 10 nM in experiment [3].
